In US6479662B2, “Antitumor dibenzofluorene derivatives” (Board of Regents, The University of Texas System, priority 1998, dated 2002):
Entries after “also recorded” stand apart in the source; their conditions may differ.

What was measured:
[1] = test system: six to eight cultured tumor cell lines; assay: In vitro cytotoxicity against the panel of tumor lines (overall activity grouping); format: cell-based, human and/or animal; conditions: for anti-tumor activity (in words): summary over the tumor lines; for activity group: grouped as determined by the majority of the results over all tumor lines; for change in activity relative to Tx-37 (in words): structural modification of Tx-37; for change in activity relative to Tx-38 (in words): structural modification of Tx-38
Description: (§1) Every dibenzofluorene derivative was tested, as will be described below, against six to eight cultured, tumor cell lines of human and/or animal origin, at least half of which were selected from the NCI panel of test tumors. In each experiment, Adriamycin (ADR) was used as a maximally positive control.
(§2) Data are IC50 values (MTT assay) reported as μg/ml for 72 hours continuous exposure to the drug. Drugs were prepared in DMSO:PEG300 (1:1). Further, dilutions were made in a cell culture medium with fetal bovine serum.
Additional tumor lines against which the drugs were tested in certain series included L1210 (leukemia), PC3 (prostate) and several others.
(§3) Compounds were evaluated for solubility characteristics in vehicles which would be appropriate for use in cell culture. The compounds were added to the cell lines under continuous culture for 72 hours. Inhibition of growth relative to control cell culture was determined by the MTT method at the end of 72 hours. This is a test of the relative ability of a compound to inhibit cell growth not survival. However, inhibition of growth may reflect cell death and/or cytostasis.
ADR invariably produced the described anti-tumor effect against all tumor lines at concentrations lower than 1 μg/ml of culture media. The effect of the Tx-compounds was divided into five activity groups as described below. In all cases, if activity against a single tumor line differed radically from that against all others, notation was made of this specificity but the agent was grouped as determined by the majority of the results.

[2] = test system: HT-29 human colon adenocarcinoma; assay: In vitro cytotoxicity, MTT assay, 72 h continuous exposure; format: cell-based; conditions: average over runs, value above 50 = 50% inhibition not achieved at 50 μg/ml
Description: as §1, §2, §3

[3] = test system: P388/0 murine lymphatic leukemia; assay: as above; format: cell-based; conditions: average over runs, value above 50 = 50% inhibition not achieved at 50 μg/ml
Description: as §1, §2, §3

BRO human melanoma = assay: as above; format: cell-based; conditions: average over runs, value above 50 = 50% inhibition not achieved at 50 μg/ml
Description: as §1, §2, §3

[4] = test system: MCF-7 human breast carcinoma; assay: as above; format: cell-based; conditions: average over runs, value above 50 = 50% inhibition not achieved at 50 μg/ml
Description: as §1, §2, §3

[5] = test system: OVCAR 3 human ovarian carcinoma; assay: as above; format: cell-based; conditions: average over runs, value above 50 = 50% inhibition not achieved at 50 μg/ml
Description: as §1, §2, §3

[6] = test system: HL-60 human promyelocytic leukemia; assay: as above; format: cell-based; conditions: average over runs, value above 50 = 50% inhibition not achieved at 50 μg/ml
Description: as §1, §2, §3

Structure (SMILES)	IC50 ([1]; Homo sapiens, all tumor lines, μg/ml of culture media, positive control, read-out: concentration producing the described anti-tumor effect against all tumor lines) [µg/mL]	anti-tumor activity (in words) [1]	average IC50 HT-29 [2] [µg/mL]	average IC50 P388/0 [3] [µg/mL]	average IC50 BRO (BRO human melanoma) [µg/mL]	average IC50 MCF-7 [4] [µg/mL]	average IC50 OVCAR-3 [5] [µg/mL]	average IC50 HL-60 [6] [µg/mL]	activity group [1]	change in activity relative to Tx-37 (in words) [1]	change in activity relative to Tx-38 (in words) [1]
COc1cccc2c1C(=O)c1c(O)c3c(c(O)c1C2=O)C[C@@](O)(C(=O)CO)C[C@@H]3O[C@H]1C[C@H](N)[C@H](O)[C@H](C)O1 [ADR, Adriamycin, reference compound]	< 1										
CN1CCN(C(=O)CCC(=O)Nc2cc3c(c4ccccc24)-c2ccc4ccccc4c2C3)CC1 [Tx-37, N-[11′-(13′H-Dibenzo[a,g]-fluorenyl)]-4-(4′N methyl-piperazinyl)-butane-1,4-dicarboxiamide]		consistent, highly positive effects; also recorded: most active compound; also recorded: significant activities	1.9	2.0	1.8	3.0	1.9	1.6			
O=C(CCC(=O)N1CCCCC1)Nc1cc2c(c3ccccc13)-c1ccc3ccccc3c1C2 [Tx-38]		no significant anti-tumor activity; also recorded: little or no activity	34.4	42.9	46.4	22.8	39.5	14.9			
CN1CCN(C(=O)C=CC(=O)Nc2cc3c(c4ccccc24)-c2ccc4ccccc4c2C3)CC1 [Tx-47]			16.7	15.4	1.2	20.2	1.1	1.2	GROUP C (These agents were effective against one-third to one-half of all tumor lines tested at levels less than 10 μg/ml)	reduced its activity significantly	
O=C(C=CC(=O)N1CCCCC1)Nc1cc2c(c3ccccc13)-c1ccc3ccccc3c1C2 [Tx-48, N-[11′-13′H-Dibenzo[a,g]-fluorenyl]-4-(1′-piperidinyl)-but-2-ene-1,4-dicarboxiamide]					22.6	18.3	23.4	30.1			little or no change
CN1CCN(C(=O)CCC(=O)Nc2cc3c(c4ccccc24)-c2ccc4ccccc4c2C3)CC1.Cl [Tx-49, N-[11′-(13′H-Dibenzo[a,g]-fluorenyl)]-4-(4′N methyl-piperazinyl hydrochloride)-butane-1,4-dicarboxiamide]			2.5	3.1	2.5	5.7	2.8	2.5		minor change in the activity	
CN1CCN(C(=O)CCC(=O)Nc2cc3c(c4ccccc24)-c2ccc4ccccc4c2C3=O)CC1 [Tx-50]		significant activities	10.0	3.7	11.2	18.1	6.6	4.0		slight diminution in activity	
O=C(CCC(=O)N1CCCCC1)Nc1cc2c(c3ccccc13)-c1ccc3ccccc3c1C2=O [Tx-51]		little or no activity			47.2	27.0	16.2	32.0			
CN1CCN(C(=O)CCC(=O)Nc2cc3c(c4ccccc24)-c2ccc4ccccc4c2C3O)CC1 (centres unmarked) [Tx-66]				2.1	6.0	5.9	4.2	2.0		minor change in the activity	
O=C(CCC(=O)N1CCCCC1)Nc1cc2c(c3ccccc13)-c1ccc3ccccc3c1C2O (centres unmarked) [Tx-67]				9.2	14.7	8.9	8.8	5.6			greatly increased the activity
CN1CCN(C(=O)CCC(=O)Nc2ccc3c(c2)Cc2ccccc2-3)CC1 [Tx-68, N-[2′-(9′H-fluorenyl)]-4-(4′N methyl-piperazinyl)-butane-1,4-dicarboxiamide]						18.2	31.7		GROUP E (These agents produced some anti-tumor effect at doses above 10 μg/ml but less than 20 μg/ml)		
O=C(CCC(=O)N1CCCCC1)Nc1ccc2c(c1)Cc1ccccc1-2 [Tx-69]				41.5		28.9					
